Source: patent US9926588B2, “Method for testing and screening P38 MAP kinase modifiers” (THE TRUSTEES OF THE UNIVERSITY OF PENNSYLVANIA, priority 2007, dated 2018)

Experiments:
[1] = system: p38 MAPK; assay: Effect of p38 MAPK activators and inhibitors on SMN complex components relocalization under protein synthesis inhibition; assay type: cell-based; settings: for SMN accumulation in the nucleus in the presence of a protein synthesis inhibitor: with a protein synthesis inhibitor such as cycloheximide
Method: (§1) HeLa PV were cultured in Dulbecco's modified Eagle's medium (Invitrogen) supplemented with 10% fetal bovine serum (Invitrogen). For screening, cells were seeded onto 384-well plates or, for specific experiments, on glass coverslips the day before treatment. Compounds were added directly into the culture medium to the indicated concentration and the cells were then maintained at 37° C. in a 5% CO2 humidified atmosphere for the duration of the treatment. Dispensing of compounds and other automatic liquid handling steps were performed with a Beckman FX multi-channel system equipped with Hudson Crane robotic systems.
(§2) Indirect immunofluorescence on HeLa PV cells was performed as follows: HeLa cells, plated on glass coverslips, were briefly washed with PBS, fixed in 2% formaldehyde/PBS for 20 minutes at room temperature, permeabilized in 0.5% Triton X-100/PBS for 5 min at room temperature. Cells were blocked in 3% bovine serum albumin for 1 hour at room temperature. Double-label immunofluorescence experiments were performed by separate sequential incubations of each primary antibody, diluted in PBS containing 3% bovine serum albumin, followed by the specific secondary coupled to fluorescein isothiocyanate or TXRD. All incubations were at room temperature for 1 hour. Indirect epifluorescence microscopy was performed with a Nikon Eclipse E800 microscope. Digital images were collected with a Cook Sensicam high performance camera and processed with the IP laboratory software. Processing of samples for immunofluorescence microscopy on cells cultured in 384-well plates was automated and performed with the aid of microplate washers (ELX405, Bio-Tek) in a similar manner to that previously used for individual samples on glass slides. The cells were also stained with DAPI to allow definition of the nucleus in each cell. Digital images were acquired with an automated microscopy and analysis system (IN Cell Analyzer 1000, GE Healthcare). Images were analyzed using automated algorithms with parameters set to calculate mean pixel intensity in each nucleus (defined by DAPI staining and acquired in a separate channel), cytoplasm, and total cell, as well as the relevant calculated ratios of these values.
Next, the effect of p38 MAPK activators and inhibitors on SMN complex components relocalization under conditions of protein synthesis inhibition was monitored.

[2] = system: SMN sub-cellular localization in HeLa PV cells; assay: SMN sub-cellular localization by indirect immunofluorescence (anti-SMN 2B1); assay type: cell-based; settings: for redistribution of SMN from the cytoplasm to the nucleus (accumulation of SMN in the nucleus): short treatment (2-6 hours); for concentration dependence of the effect on nuclear localization of SMN: HeLa cells (CHX FIG. 3b; VPA 2-10 mM FIG. 5b); for immunostaining of SMN showing nuclear accumulation (FIG. 8): emetine, puromycin, thapsigargin 10 μM, tunicamycin 10 μg/ml; for nuclear translocation of SMN at longer times: >24 hr (FIG. 5a)
Method: as §1
(§3) The following mouse monoclonal antibodies were used for indirect immunofluorescence: 2B1 (anti-SMN), 2E17 (anti-Gemin2), 12H12 (anti-Gemin3), 10G11 (anti-Gemin5), 6E2 (anti-Gemin7), 10E10 (anti-PABP), 6BG10 (anti-FXR1), Y12 (anti-Sm) and 9H10 (anti-hnRNP A1). An affinity-purified rabbit polyclonal antibody was used to detect Gemin6.
as §2
Based on the results obtained in Example 1, a library of ˜5,000 biologically active small molecules was screened on HeLa cells in 384-well plates. Each well was incubated with a different compound (at 10 μM) and the cells were processed for indirect immunofluorescence. Digital images were collected from six fields in each well and analyzed using imaging algorithms for multiple parameters including relative nuclear and cytoplasmic intensities, and number, size and signal intensity of Gems. DAPI-stained images were collected in a separate channel to define the boundary of each nucleus. Images of individual fields in wells were flagged by the software as showing a significant change in SMN sub-cellular localization. These individual wells were examined directly, and active compounds were re-tested for verification (FIG. 2).

[3] = system: Gemins 2, 3, 5, 6 and 7 localization in HeLa cells; assay: Immunostaining of Gemins (SMN complex components) in treated cells; assay type: cell-based
Method: as §3
Indirect immunofluorescence on HeLa PV cells was performed as follows: HeLa cells, plated on glass coverslips, were briefly washed with PBS, fixed in 2% formaldehyde/PBS for 20 minutes at room temperature, permeabilized in 0.5% Triton X-100/PBS for 5 min at room temperature. Cells were blocked in 3% bovine serum albumin for 1 hour at room temperature. Double-label immunofluorescence experiments were performed by separate sequential incubations of each primary antibody, diluted in PBS containing 3% bovine serum albumin, followed by the specific secondary coupled to fluorescein isothiocyanate or TXRD. All incubations were at room temperature for 1 hour. Indirect epifluorescence microscopy was performed with a Nikon Eclipse E800 microscope. […] Images were analyzed using automated algorithms with parameters set to calculate mean pixel intensity in each nucleus (defined by DAPI staining and acquired in a separate channel), cytoplasm, and total cell, as well as the relevant calculated ratios of these values. […]

[4] = system: hnRNP A1, PABP, FXR1 and snRNPs localization in HeLa cells; assay: Localization of other nuclear and cytoplasmic proteins (specificity); assay type: cell-based; settings: 6 hrs of 10 μM CHX (FIG. 3c)
Method: as §3
Indirect immunofluorescence on HeLa PV cells was performed as follows: HeLa cells, plated on glass coverslips, were briefly washed with PBS, fixed in 2% formaldehyde/PBS for 20 minutes at room temperature, permeabilized in 0.5% Triton X-100/PBS for 5 min at room temperature. Cells were blocked in 3% bovine serum albumin for 1 hour at room temperature. Double-label immunofluorescence experiments were performed by separate sequential incubations of each primary antibody, diluted in PBS containing 3% bovine serum albumin, followed by the specific secondary coupled to fluorescein isothiocyanate or TXRD. All incubations were at room temperature for 1 hour. Indirect epifluorescence microscopy was performed with a Nikon Eclipse E800 microscope. […] Images were analyzed using automated algorithms with parameters set to calculate mean pixel intensity in each nucleus (defined by DAPI staining and acquired in a separate channel), cytoplasm, and total cell, as well as the relevant calculated ratios of these values.

[5] = system: HeLa cells; assay: Cell viability / toxicity of treated cells; settings: overnight treatment with 10 μM CHX

Molecule: COc1ccc(C[C@H]2NC[C@H](O)[C@H]2OC(C)=O)cc1 [Anisomycin]
- localization of SMN complex components, Anisomycin alone ([1]; treated cell (FIG. 6: 1 μg/ml Anisomycin)): accumulate in the cytoplasm
- SMN accumulation in the nucleus in the presence of a protein synthesis inhibitor [1]: inhibit SMN accumulation in the nucleus

Molecule: Oc1ccc(-c2nc(-c3ccncc3)c(-c3ccc(F)cc3)[nH]2)cc1 [SB202190]
- localization of SMN complex components, p38 MAPK inhibitor combined with Anisomycin ([1]; 10 μM SB202190 + 1 μg/ml Anisomycin, HeLa cells, FIG. 6): accumulation of SMN complex components in the nucleus
- localization of SMN complex components, p38 MAPK inhibitor combined with CHX ([1]; 10 μM SB202190 + 10 μM CHX, HeLa cells, FIG. 6): accumulation of SMN complex components in the nucleus

Molecule: CCOC(=O)CN1C(=O)CC(C[C@@H](O)[C@@H]2C[C@@H](C)C[C@H](C)C2=O)CC1=O [cycloheximide-N-ethylethanoate]
- redistribution of SMN from the cytoplasm to the nucleus (accumulation of SMN in the nucleus) ([2]; HeLa cells): did not show any effect

Molecule: C[C@@H]1C[C@@H]([C@H](O)CC2CC(=O)NC(=O)C2)C(=O)[C@@H](C)C1 [cycloheximide]
- treatment time after which little SMN was detected in the cytoplasm ([2]; HeLa cells): ≥ 8 h
- treatment time after which the effect on SMN redistribution was evident ([2]; HeLa cells): 2 h
- concentration dependence of the effect on nuclear localization of SMN [2]: concentration-dependent
- concentrations exhibiting a clear effect on redistribution of SMN from the cytoplasm to the nucleus ([2]; HeLa cells, FIG. 3a,b): 0.1 to 40 µM
- redistribution of SMN from the cytoplasm to the nucleus (accumulation of SMN in the nucleus) ([2]; HeLa cells): most striking accumulation of SMN in the nucleus
- reversibility of SMN nuclear accumulation ([2]; cells washed and placed in fresh medium devoid of cycloheximide): reversible
- relocation of SMN complex components (Gemins) to the nucleus ([3]; HeLa cells, 6 hours 10 μM CHX (FIG. 4), Gemin3 and Gemin5 excepted): causes most of the components of the SMN complex to accumulate in the nucleus
- localization of other nuclear and cytoplasmic proteins (hnRNP A1, PABP, FXR1, snRNPs) [4]: not significantly affected
- cell viability [5]: no reduction in cell viability

Molecule: CC[C@H]1CN2CCc3cc(OC)c(OC)cc3[C@@H]2C[C@@H]1C[C@H]1NCCc2cc(OC)c(OC)cc21 [emetine]
- redistribution of SMN from the cytoplasm to the nucleus (accumulation of SMN in the nucleus) ([2]; HeLa cells): showed the same effect as cycloheximide
- immunostaining of SMN showing nuclear accumulation (FIG. 8) ([2]; HeLa cells): nuclear accumulation

Molecule: COc1ccc(C[C@H](N)C(=O)N[C@H]2[C@@H](O)[C@H](n3cnc4c(N(C)C)ncnc43)O[C@@H]2CO)cc1 [puromycin]
- redistribution of SMN from the cytoplasm to the nucleus (accumulation of SMN in the nucleus) ([2]; HeLa cells): showed the same effect as cycloheximide
- immunostaining of SMN showing nuclear accumulation (FIG. 8) ([2]; HeLa cells): nuclear accumulation

Molecule: O=C(CCCCCN1C(=O)c2cccc3cccc(c23)C1=O)NO [scriptaid]
- nuclear translocation of SMN at longer times ([2]; HeLa cells): caused the same effect as protein synthesis inhibitors

Molecule: C/C=C(/C)C(=O)O[C@H]1C(C)=C2[C@H]([C@@H]1OC(=O)CCCCCCC)[C@@](C)(OC(C)=O)C[C@H](OC(=O)CCC)[C@@]1(O)[C@H]2OC(=O)[C@@]1(C)O [thapsigargin]
- redistribution of SMN from the cytoplasm to the nucleus (accumulation of SMN in the nucleus) ([2]; HeLa cells): caused SMN to accumulate in the nucleus
- immunostaining of SMN showing nuclear accumulation (FIG. 8) ([2]; HeLa cells): nuclear accumulation

Molecule: CC(/C=C/C(=O)NO)=C\[C@@H](C)C(=O)c1ccc(N(C)C)cc1 [trichostatin A]
- nuclear translocation of SMN at longer times ([2]; HeLa cells): caused the same effect as protein synthesis inhibitors

Molecule: CCCC(CCC)C(=O)O [valproic acid]
- concentration dependence of the effect on nuclear localization of SMN [2]: clear concentration dependence effect
- nuclear translocation of SMN at longer times ([2]; HeLa cells): caused the same effect as protein synthesis inhibitors
- localization of Gemin3 and Gemin5 ([3]; 24 hour treatment with VPA (FIG. 5c)): remain predominantly cytoplasmic

Molecule: TNFα
- localization of SMN complex component, p38 MAPK activator combined with CHX ([1]; 150 ng/ml TNFα + 10 μM CHX, HeLa cells, FIG. 6): still remained in the cytoplasm
- localization of SMN complex components, p38 MAPK activator alone ([1]; 150 ng/ml TNFα, HeLa cells, FIG. 6): accumulation of SMN complex components in the cytoplasm
- SMN accumulation in the nucleus in the presence of a protein synthesis inhibitor [1]: inhibit SMN accumulation in the nucleus

Molecule: tunicamycin
- redistribution of SMN from the cytoplasm to the nucleus (accumulation of SMN in the nucleus) ([2]; HeLa cells): caused SMN to accumulate in the nucleus
- immunostaining of SMN showing nuclear accumulation (FIG. 8) ([2]; HeLa cells): nuclear accumulation
